For 29 compounds, IC50 results are on record in patent US12187728B2 (Raze Therapeutics, Inc., priority 2015, dated 2025).

One may read the IC50 as the concentration that inhibits the measured activity by half. A lower IC50 goes with greater potency.

Molecules are shown by their SMILES.

The target in this assay is T1, Human MTHFD2 (Homo sapiens, UniProt P13995).
T1 construct: residues 36-350 in Uniport ID P13995; His6 (N); made in house; host or cells: E. coli
T1 sequence (P13995 36-350): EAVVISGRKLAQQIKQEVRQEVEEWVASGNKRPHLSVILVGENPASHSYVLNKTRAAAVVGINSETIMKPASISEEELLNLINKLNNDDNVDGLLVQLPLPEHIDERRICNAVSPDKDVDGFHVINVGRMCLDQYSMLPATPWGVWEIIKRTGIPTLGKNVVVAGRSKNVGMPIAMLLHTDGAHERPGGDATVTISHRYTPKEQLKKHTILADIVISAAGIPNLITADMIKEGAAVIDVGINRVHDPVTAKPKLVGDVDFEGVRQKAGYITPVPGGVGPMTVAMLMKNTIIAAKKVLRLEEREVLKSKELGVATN
The assay is described as follows: MTHFD2 Activity Assay (dehydrogenase activity, diaphorase/resazurin coupled fluorescence). The assay is classed as biochemical. As to conditions: inhibitory activity (IC50 and/or binding constant); 0.2 nM MTHFD2, 11 concentrations. Put shortly: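 Resorufin fluorescence (ex 525, em 598 nm) reports NADH formed by the dehydrogenase via diaphorase coupling. Enzyme (0.2 nM, residues 36-350, N-His6) sat with compound 15 min before 70 μM CH2-THF and 1 mM NAD+ started a 30 min reaction. IC50s come from 4-parameter fits over 11 concentrations.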
A general note: The colour change of resazurin is a common sign of viable cells or microbes.
Regarding `Cn1c(C2CCCN2)nc2c1c(=O)n(Cc1cc3c(Cl)cccc3[nH]1)c(=O)n2C` (centres unmarked) [Example 424, 1-[(4-chloro-1H-indol-2-yl)methyl]-3,7-dimethyl-8-pyrrolidin-2-yl-purine-2,6-dione], the IC50 was 10 to 1000 nM.
`Cn1c(NC2CCCC(C(=O)O)C2)nc2c1c(=O)n(Cc1ccc3cc[nH]c3c1)c(=O)n2C` (centres unmarked) [Example 260, 3-(1-((1H-indol-6-yl)methyl)-3,7-dimethyl-2,6-dioxo-2,3,6,7-tetrahydro-1H-purin-8-ylamino)cyclohexanecarboxylic acid] yielded an IC50 of 10 to 1000 nM.
With `Cn1c(N[C@H]2C[C@H](CO)C2)nc2c1c(=O)n(Cc1ccc(Cl)c(Cl)c1)c(=O)n2C` [Example 268] the figure was 10 to 1000 nM; with `Cn1c(N[C@H]2CCOC2)nc2c1c(=O)n(Cc1ccc(Cl)c(Cl)c1)c(=O)n2C` [Example 49, 1-[(3,4-dichlorophenyl)methyl]-3,7-dimethyl-8-{[(3S)-oxolan-3-yl]amino}-2,3,6,7-tetrahydro-1H-purine-2,6-dione], 10 to 1000 nM.
With `CNc1nc2c(c(=O)n(Cc3ccc(Cl)c(Cl)c3)c(=O)n2C)n1C` [Example 21, 1-[(3,4-dichlorophenyl)methyl]-3,7-dimethyl-8-(methylamino)-2,3,6,7-tetrahydro-1H-purine-2,6-dione] the figure was 1000 to 5000 nM.
On to `Cc1ccc2[nH]c(Cn3c(=O)c4c(nc(CCO)n4C)n(C)c3=O)cc2c1` [Example 210, 8-(2-hydroxyethyl)-3,7-dimethyl-1-((5-methyl-1H-indol-2-yl)methyl)-1H-purine-2,6(3H,7H)-dione], for which the IC50 was in the range of 1000 to 5000 nM.
With `Cn1c(N[C@@H]2CCCNC2=O)nc2c1c(=O)n(Cc1cc3ccccc3[nH]1)c(=O)n2C` [Example 221, (R)-1-((1H-indol-2-yl)methyl)-3,7-dimethyl-8-(2-oxopiperidin-3-ylamino)-1H-purine-2,6(3H,7H)-dione] the figure was 1000 to 5000 nM; with `CC(=O)NCc1nccc(Nc2nc3c(c(=O)n(Cc4cc5c(Cl)cccc5[nH]4)c(=O)n3C)n2C)n1` [Example 451, N-((4-(1-((4-chloro-1H-indol-2-yl)methyl)-3,7-dimethyl-2,6-dioxo-2,3,6,7-tetrahydro-1H-purin-8-ylamino)pyrimidin-2-yl)methyl)acetamide], 10 to 1000 nM; with `Cc1ccc2c(c1)cc(Cn1c(=O)c3c(nc(N[C@H]4CC[C@@H](O)C4)n3C)n(C)c1=O)n2C` [Example 185, 1-((1,5-dimethyl-1H-indol-2-yl)methyl)-8-((1S,3R)-3-hydroxycyclopentylamino)-3,7-dimethyl-1H-purine-2,6(3H,7H)-dione], 10 to 1000 nM.
For the compound `Cn1c(NCc2ccccn2)nc2c1c(=O)n(Cc1ccc(Cl)c(Cl)c1)c(=O)n2C` [Example 139, 1-(3,4-dichlorobenzyl)-3,7-dimethyl-8-(pyridin-2-ylmethylamino)-1H-purine-2,6(3H,7H)-dione], the IC50 was in the range of 1000 to 5000 nM.
With `Cn1c(NCCS(N)(=O)=O)nc2c1c(=O)n(Cc1ccc(Cl)c(Cl)c1)c(=O)n2C` [Example 102, 2-(1-(3,4-dichlorobenzyl)-3,7-dimethyl-2,6-dioxo-2,3,6,7-tetrahydro-1H-purin-8-ylamino)ethanesulfonamide] the figure was 5000 to 10000 nM; with `Cn1c(CC(=O)O)nc2c1c(=O)n(Cc1ccc(Cl)c(Cl)c1)c(=O)n2C` [Example 101, 2-(1-(3,4-dichlorobenzyl)-3,7-dimethyl-2,6-dioxo-2,3,6,7-tetrahydro-1H-purin-8-yl)acetic acid], 5000 to 10000 nM; with `CN(C)CCc1nc2c(c(=O)n(Cc3ccc(Cl)c(Cl)c3)c(=O)n2C)n1C` [Example 157, 1-(3,4-dichlorobenzyl)-8-(2-(dimethylamino)ethyl)-3,7-dimethyl-1H-purine-2,6(3H,7H)-dione], 1000 to 5000 nM.
With `CC(O)C1CCC(Nc2nc3c(c(=O)n(Cc4ccc(Cl)c(Cl)c4)c(=O)n3C)n2C)C1` (centres unmarked) [Example 265, 1-(3,4-dichlorobenzyl)-8-(3-(1-hydroxyethyl)cyclopentylamino)-3,7-dimethyl-1H-purine-2,6(3H,7H)-dione], the IC50 is 10 to 1000 nM.
With `C[C@H](O)CNc1nc2c(c(=O)n(Cc3ccc(Cl)c(Cl)c3)c(=O)n2C)n1C` [Example 8, 1-[(3,4-dichlorophenyl)methyl]-8-{[(2S)-2-hydroxypropyl]amino}-3,7-dimethyl-2,3,6,7-tetrahydro-1H-purine-2,6-dione] the figure was 10 to 1000 nM.
Consider `Cn1c(NC2(C(=O)O)CCCC2)nc2c1c(=O)n(Cc1ccc(C(F)(F)F)cc1)c(=O)n2C` [Example 149, 1-(3,7-dimethyl-2,6-dioxo-1-(4-(trifluoromethyl)benzyl)-2,3,6,7-tetrahydro-1H-purin-8-ylamino)cyclopentanecarboxylic acid], for which the IC50 was greater than 10000 nM.
With `Cn1c(NCCOCCO)nc2c1c(=O)n(Cc1ccc(Cl)c(Cl)c1)c(=O)n2C` [Example 54, 1-[(3,4-dichlorophenyl)methyl]-8-{[2-(2-hydroxyethoxy)ethyl]amino}-3,7-dimethyl-2,3,6,7-tetrahydro-1H-purine-2,6-dione] the figure was 10 to 1000 nM; with `Cn1c(N[C@@H]2CC[C@H](C(=O)O)C2)nc2c1c(=O)n(Cc1ccc(Cl)c(Cl)c1)c(=O)n2C` [Example 50, (1S,3R)-3-({1-[(3,4-dichlorophenyl)methyl]-3,7-dimethyl-2,6-dioxo-2,3,6,7-tetrahydro-1H-purin-8-yl}amino)cyclopentane-1-carboxylic acid], 10 to 1000 nM.
For the compound `COc1cc(Cn2c(=O)c3c(nc(N[C@@H]4CCC[C@H]4O)n3C)n(C)c2=O)ccc1Cl` [Example 103, 1-[(4-chloro-3-methoxyphenyl)methyl]-8-{[(1R,2R)-2-hydroxycyclopentyl]amino}-3,7-dimethyl-2,3,6,7-tetrahydro-1H-purine-2,6-dione], the IC50 is 1000 to 5000 nM.
Next, `Cn1c(NC2CCNC(=O)C2)nc2c1c(=O)n(Cc1ccc(Cl)c(Cl)c1)c(=O)n2C` (racemic) [Example 211, (±)-1-(3,4-dichlorobenzyl)-3,7-dimethyl-8-(2-oxopiperidin-4-ylamino)-1H-purine-2,6(3H,7H)-dione]: 10 to 1000 nM.
Turning to `Cn1c(Cn2c(=O)c3c(nc(N4CCC(O)CC4)n3C)n(C)c2=O)cc2cc(Cl)ccc21` [Example 196, 1-((5-chloro-1-methyl-1H-indol-2-yl)methyl)-8-(4-hydroxypiperidin-1-yl)-3,7-dimethyl-1H-purine-2,6(3H,7H)-dione], the IC50 is 10 to 1000 nM.
Take `Cn1c(=O)n(Cc2ccc(Cl)c(Cl)c2)c(=O)c2c1nc(NC1CCCC(C(=O)O)C1)n2CC(N)=O` (centres unmarked) [Example 306, 3-(7-(2-amino-2-oxoethyl)-1-(3,4-dichlorobenzyl)-3-methyl-2,6-dioxo-2,3,6,7-tetrahydro-1H-purin-8-ylamino)cyclohexanecarboxylic acid]: the IC50 lay within 10 to 1000 nM.
With `COc1ccc2[nH]c(Cn3c(=O)c4c(nc(N[C@H]5CC[C@@H](O)C5)n4C)n(C)c3=O)cc2c1` [Example 182, 8-((1S,3R)-3-hydroxycyclopentylamino)-1-((5-methoxy-1H-indol-2-yl)methyl)-3,7-dimethyl-1H-purine-2,6(3H,7H)-dione] the figure was 10 to 1000 nM; with `Cn1c(Nc2ccnc(CN)n2)nc2c1c(=O)n(Cc1cc3c(Cl)cccc3[nH]1)c(=O)n2C` [Example 469, 8-(2-(aminomethyl)pyrimidin-4-ylamino)-1-((4-chloro-1H-indol-2-yl)methyl)-3,7-dimethyl-1H-purine-2,6(3H,7H)-dione], 10 to 1000 nM.
Next, `COc1ccc(Nc2nc3c(c(=O)n(Cc4cc5c(Cl)cccc5[nH]4)c(=O)n3C)n2C)cn1` [Example 380, 1-((4-chloro-1H-indol-2-yl)methyl)-8-(6-methoxypyridin-3-ylamino)-3,7-dimethyl-1H-purine-2,6(3H,7H)-dione]: 10 to 1000 nM; `Cn1c(NC2CCNCC2)nc2c1c(=O)n(Cc1ccc(Cl)c(Cl)c1)c(=O)n2C` [Example 35, 1-[(3,4-dichlorophenyl)methyl]-3,7-dimethyl-8-[(piperidin-4-yl)amino]-2,3,6,7-tetrahydro-1H-purine-2,6-dione]: 1000 to 5000 nM.
With `Cn1c(NCCC#N)nc2c1c(=O)n(Cc1ccc(Cl)c(Cl)c1)c(=O)n2C` [Example 131, 3-(1-(3,4-dichlorobenzyl)-3,7-dimethyl-2,6-dioxo-2,3,6,7-tetrahydro-1H-purin-8-ylamino)propanenitrile] the figure was 1000 to 5000 nM; with `Cc1ccc2[nH]c(Cn3c(=O)c4c(nc(N5CC(O)C5)n4C)n(C)c3=O)cc2c1` [Example 194, 8-(3-hydroxyazetidin-1-yl)-3,7-dimethyl-1-((5-methyl-1H-indol-2-yl)methyl)-1H-purine-2,6(3H,7H)-dione], 1000 to 5000 nM.
Compound `Cn1c(Nc2cccc(C3CCC(O)C3)n2)nc2c1c(=O)n(Cc1cc3c(Cl)cccc3[nH]1)c(=O)n2C` (centres unmarked) [Example 351, 1-((4-chloro-1H-indol-2-yl)methyl)-8-(6-(3-hydroxycyclopentyl)pyridin-2-ylamino)-3,7-dimethyl-1H-purine 2,6(3H,7H)-dione] had an IC50 of 10 to 1000 nM.
